Laboratory results: patent US20230348987A1, “METHODS AND COMPOSITIONS FOR TREATING CANCER” (PROMETTRE RESEARCH PTY LTD, priority 2020, published 2023)
“Also recorded” adds a separate entry of the source.

What was measured:
[1] = test system: HSP105, HSP70, pHER2, total HER2 and EGR4-S expression; experiment: Western blot after treatment with cell stress activating compounds (FIG. 4E); assay type: cell-based
Procedure: The MCF10A cell line was obtained from the A.T.C.C. (Manassas, VA, U.S.A.) and cultured as described previously (Debnath et al., 2003). T47D cells, SkBr3 cells, Hs578T and HEK-293T cells were cultured as described by Nguyen et al (2013). MDA-361, ZR75-1, BT-474, MDA-453, MDA-468, MDA-231, BT549 and MCF7 cells were cultured in Dulbecco's Modified Eagle's medium supplemented with 10% (v/v) fetal bovine serum and 1% (w/v) penicillin/streptomycin. In addition, MCF7 growth media was supplemented with 10 ng/ml insulin. All stable cell lines were generated by retroviral or lentiviral transduction as per Debnath et al. (2003). Viral stocks were generated by transient transfection of appropriate viral packaging vectors into the HEK-293T cell line as described by Lang and colleagues (2012). Drugs/compounds used for treating the cells were purchased from commercial sources, including Lapatinib, Erlotinib, Gefinitib and AUY922 from Sigma, and Sulfurophane from Santa Cruz Biotechnology. HSF1-targeted shRNAmir (microRNA-adapted short hairpin RNA) vectors were constructed as described previously (Lang et al., 2012). EGR4-targeted shRNAmir were purchased from Millenium Science.
(§1) Generation of protein lysates from cells was performed according to a previously published protocol (Price et al., 2005). Equal concentrations of protein lysates were combined with loading buffer (Invitrogen) and sample reducing agent (Invitrogen), denatured for 5 minutes at 95° C. then separated through gel electrophoresis in a 4-to-12% Bis-Tris NuPAGE gel (Invitrogen) with 1×MES buffer (Invitrogen) and antioxidant (Invitrogen). Following separation, the proteins were electrophoretically transferred onto nitrocellulose membranes using the iBlot western detection stack/iBlot dry blotting system (Thermofisher) for seven minutes at 23V. All membranes were then processed at room temperature overnight using the […] (Thermofisher) containing primary antibodies, iBind wash solution and horseradish peroxidase-conjugated secondary antibodies. Blots were developed using Clarity Western ECL (Bio-RAD), and images were captured using a Fusion FX imaging machine (Vilber). All antibodies were purchased from commercial sources and included, anti-HSF1 (catalogue number SPA-901), anti-HSP27 (catalogue number SPA-800) and anti-HSP90a (catalogue number SPA-835) antibodies from Enzo Life Sciences; anti-HSP105/110 (catalogue number Sc-6241) antibody from Santa Cruz Biotechnology; anti-Ha-Ras (catalogue number 05-775) antibody from Merck Millipore; anti-actin (catalogue number MS-1295-P0) and anti-HSP70i (catalogue number MS-482-P0) antibodies from Thermo Scientific; anti-p53 (catalogue number 51-9002046) from BD Pharmingen; anti-pHER2/ErbB2 (catalogue number Ab53290), anti-pAkt (catalogue number MISCGENLAB), anti-pEGFR catalogue number SCZSC-12351), anti-total EGFR catalogue number SCZSC-120) from Abcam, anti-total Akt (catalogue number 9272) and anti-HER2/ErbB2 (catalogue number Ab134182) from Cell Signalling, anti-EGR4 (catalogue number AV38090) (Sigma), anti-EGR4 (catalogue number PA5-50496) (Thermofisher), and anti-EGR4 (catalogue number SC133540) (Santa Cruz).

[2] = test system: HER signalling pathway (pHER2, pAKT, EGR4-S) in HER2+ breast cancer cells; details: for EGR4-S expression: increasing drug concentrations, FIG. 3
Procedure: Generation of protein lysates from cells was performed according to a previously published protocol (Price et al., 2005). Equal concentrations of protein lysates were combined with loading buffer (Invitrogen) and sample reducing agent (Invitrogen), denatured for 5 minutes at 95° C. then separated through gel electrophoresis in a 4-to-12% Bis-Tris NuPAGE gel (Invitrogen) with 1×MES buffer (Invitrogen) and antioxidant (Invitrogen). Following separation, the proteins were electrophoretically transferred onto nitrocellulose membranes using the iBlot western detection stack/iBlot dry blotting system (Thermofisher) for seven minutes at 23V. All membranes were then processed at room temperature overnight using the iBlot Western system (Thermofisher) containing primary antibodies, iBind wash solution and horseradish peroxidase-conjugated secondary antibodies. Blots were developed using Clarity Western ECL (Bio-RAD), and images were captured using a Fusion FX imaging machine (Vilber).
The effect of modulators that target the HER signalling pathway (TKIs such as Lapatinib, Gefitinib and Erlotinib) on EGR4-S expression was examined.

[3] = test system: EGR4-S in HER2+ breast cancer cells (SKBR3); experiment: EGR4-S expression in cells cultured in increasing Lapatinib concentrations over 7 weeks (FIG. 12); assay type: cell-based
Procedure: as §1
The cell line was cultured in increasing concentrations of Lapatinib over the course of seven weeks to investigate whether EGR4-S expression would be affected during prolonged treatment with Lapatinib.

EGR4-S in HER2+ cells = experiment: Lapatinib treatment of HER2+ cells with elevated or lowered HSF1 (FIG. 15A/B); assay type: cell-based
Procedure: as §1

CCNC(=O)c1noc(-c2cc(C(C)C)c(O)cc2O)c1-c1ccc(CN2CCOCC2)cc1 [AUY922] was tested, and the EGR4-S expression ([1]; higher concentrations) was “decreased; also recorded: reducing EGR4-S expression”, the HSP105 expression ([1]; higher concentrations) was “increased” and the pHER2 expression ([1]; higher concentrations) was “decreased”. The “total HER2 expression” value ([1]; higher concentrations) was “decreased”.

C#Cc1cccc(Nc2ncnc3cc(OCCOC)c(OCCOC)cc23)c1 [Erlotinib] was tested, and the EGR4-S expression [2] was “regulated”.

With COc1cc2ncnc(Nc3ccc(F)c(Cl)c3)c2cc1OCCCN1CCOCC1 [Gefitinib] the EGR4-S expression [2] was “regulated”.

With CS(=O)(=O)CCNCc1ccc(-c2ccc3ncnc(Nc4ccc(OCc5cccc(F)c5)c(Cl)c4)c3c2)o1 [Lapatinib] the “EGR4-S expression over time” value ([2]; different types of HER2+ breast cancer cells, FIG. 3B) was “maintained over time”, the EGR4-S expression [2] was “regulated” and the EGR4-S expression ([3]; SKBR3, week 5, 300 nM Lapatinib, vs control) was “less EGR4-S compared to the control”. The EGR4-S expression ([3]; SKBR3, week 7, 600 nM Lapatinib) was “returning to control levels”, the EGR4-S expression ([3]; after 3 weeks of treatment, vs untreated control) was “reduced levels of EGR4-S” and the EGR4-S expression ([3]; prolonged treatment, vs untreated control cells) was “unchanged”. The EGR4-S expression (EGR4-S in HER2+ cells; HER2+ cells, dose-dependent, FIG. 15A) was “reduced EGR4-S expression in a dose-dependent manner”, the “response of EGR4-S expression” value (EGR4-S in HER2+ cells; HSF1 levels lowered, equivalent doses, FIG. 15B) was “did not respond as readily” and the “reduction of EGR4-S expression” value (EGR4-S in HER2+ cells; with elevated HSF1, FIG. 15A) was “more pronounced”.

With C[S+]([O-])CCCCN=C=S (stereo not shown) [Sulfurophane, Sulforaphane] the HSP70 expression ([1]; greater treatment concentrations) was “increased”, the EGR4-S expression ([1]; higher concentrations) was “reductions” and the pHER2 expression ([1]; higher concentrations) was “reductions”. The EGR4-S expression ([1]; higher concentrations, listed as Sulforaphane) was “reducing EGR4-S expression”.
